From patent publication US8785445B2 (Array BioPharma Inc., priority 2008, dated 2014)
Where two headings read alike, the source gives them in different places.

Molecular target: T1, human DP2 (Homo sapiens, UniProt Q9Y5Y4)
T1 construct: expressed in transfected cells; membranes prepared
T1 sequence (Q9Y5Y4 1-395): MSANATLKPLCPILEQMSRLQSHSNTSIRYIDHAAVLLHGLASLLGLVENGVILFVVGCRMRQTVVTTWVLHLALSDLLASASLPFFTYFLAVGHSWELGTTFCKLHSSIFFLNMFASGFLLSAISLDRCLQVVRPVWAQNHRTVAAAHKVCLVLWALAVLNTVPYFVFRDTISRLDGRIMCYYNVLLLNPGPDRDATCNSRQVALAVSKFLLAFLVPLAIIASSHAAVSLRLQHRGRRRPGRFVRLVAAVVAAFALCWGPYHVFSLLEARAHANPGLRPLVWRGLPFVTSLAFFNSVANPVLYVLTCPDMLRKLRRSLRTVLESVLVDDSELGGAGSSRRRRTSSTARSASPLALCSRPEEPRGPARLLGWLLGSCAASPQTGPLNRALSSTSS
Assay: DP-2 binding inhibition assay (3H-PGD2, membranes of DP2-expressing K562 cells)
Summary of the method: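 Displacement of 3H-PGD2 was measured by filtration and scintillation counting after 60 min at room temperature, using membranes of DP2-transfected K562 cells in 0.1% BSA, 1% HSA or 4% HSA.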

[1] = 4% HSA, read-out: EC50 (nM) 4% HSA
[2] = 0.1% BSA, read-out: EC50 (nM) 0.1% BSA
[3] = 1% HSA, read-out: EC50 (nM) 1% HSA

Compound	EC50 [1] [nM]	EC50 [2] [nM]	EC50 [3] [nM]
O=C(Nc1cc(-c2ccc(F)cc2)n[nH]1)c1ccc(Oc2cc3c(cc2Cl)C(C(=O)O)CCO3)cc1 (stereo not shown) [Example 181, 6-Chloro-7-(4-(3-(4-fluorophenyl)-1H-pyrazol-5-ylcarbamoyl)phenoxy)chroman-4-carboxylic acid]	313	–	–
O=C(Nc1ccc(-c2cccc(Cl)c2)nc1)c1ccc(Oc2cc3c(cc2Cl)C(C(=O)O)CCO3)cc1 (stereo not shown) [Example 124, 6-Chloro-7-(4-(6-(3-chlorophenyl)pyridin-3-ylcarbamoyl)phenoxy)chroman-4-carboxylic acid]	133	–	–
N#Cc1cc2c(cc1Oc1ccc(C(=O)Nc3ccc4ccccc4n3)cc1)OCCC2C(=O)O (stereo not shown) [Example 3, 6-Cyano-7-(4-(quinolin-2-ylcarbamoyl)phenoxy)chroman-4-carboxylic acid]	–	12.8	482
CC(C)(C)c1ccc(-c2cccc(NC(=O)c3ccc(Oc4cc5c(cc4Cl)C(C(=O)O)CCO5)cc3)n2)cc1 (stereo not shown) [Example 85, 7-(4-(6-(4-tert-Butylphenyl)pyridin-2-ylcarbamoyl)phenoxy)-6-chlorochroman-4-carboxylic acid]	22.5	–	–
O=C(Nc1ccc(-c2ccc(Cl)c(Cl)c2)nn1)c1ccc(Oc2cc3c(cc2Cl)C(C(=O)O)CCO3)cc1 (stereo not shown) [Example 65, Sodium 6-chloro-7-(4-(6-(3,4-dichlorophenyl)pyridazin-3-ylcarbamoyl)phenoxy)chroman-4-carboxylate]	96.2	–	–
O=C(Nc1ccc(-c2cccc(C(F)(F)F)c2)nc1)c1ccc(Oc2cc3c(cc2Cl)C(C(=O)O)CCO3)cc1 (stereo not shown) [Example 75, 6-Chloro-7-(4-(6-(3-(trifluoromethyl)phenyl)pyridin-3-ylcarbamoyl)phenoxy)chroman-4-carboxylic acid]	149	–	–
N#Cc1cc2c(cc1Oc1ccc(C(=O)Nc3nc4ccccc4o3)cc1)OCCC2C(=O)O (stereo not shown) [Example 203, 7-(4-(benzo[d]oxazol-2-ylcarbamoyl)phenoxy)-6-cyanochroman-4-carboxylic acid]	–	69	–
O=C(Nc1ccnc(-c2cccc(Cl)c2)c1)c1ccc(Oc2cc3c(cc2Cl)C(C(=O)O)CCO3)cc1 (stereo not shown) [Example 129, 6-Chloro-7-(4-(2-(3-chlorophenyl)pyridin-4-ylcarbamoyl)phenoxy)chroman-4-carboxylic acid]	437	–	–
COc1ccc(-c2cccc(NC(=O)c3ccc(Oc4cc5c(cc4Cl)C(C(=O)O)CCO5)cc3)n2)c(OC)n1 (stereo not shown) [Example 55, Sodium 6-chloro-7-(4-(2′,6′-dimethoxy-2,3′-bipyridin-6-ylcarbamoyl)phenoxy)chroman-4-carboxylate]	258	–	–
CC(C)c1csc(NC(=O)c2ccc(Oc3cc4c(cc3Cl)C(C(=O)O)CCO4)cc2)n1 (stereo not shown) [Example 156, 6-chloro-7-(4-(4-isopropylthiazol-2-ylcarbamoyl)phenoxy)chroman-4-carboxylic acid]	157	–	–
CC(C)(C)Sc1cccc(NC(=O)c2ccc(Oc3cc4c(cc3Cl)C(C(=O)O)CCO4)cc2)n1 (stereo not shown) [Example 91, 7-(4-(6-(tert-Butylthio)pyridin-2-ylcarbamoyl)phenoxy)-6-chlorochroman-4-carboxylic acid]	897	–	–
N#Cc1cc2c(cc1Oc1ccc(C(=O)Nc3ccc(C(F)(F)F)nc3)cc1)OCCC2C(=O)O (stereo not shown) [Example 6, 7-(4-((6-(Trifluoromethyl)pyridin-3-yl)carbamoyl)phenoxy)-6-cyanochroman-4-carboxylic acid]	–	16.9	524
CC(C)(C)c1cccc(NC(=O)c2ccc(Oc3cc4c(cc3Cl)C(C(=O)O)CCO4)cc2)n1 (stereo not shown) [Example 114, 7-(4-(6-tert-Butylpyridin-2-ylcarbamoyl)phenoxy)-6-chlorochroman-4-carboxylic acid]	276	–	–
O=C(Nc1ccn(Cc2ccc(Cl)cc2)n1)c1ccc(Oc2cc3c(cc2Cl)C(C(=O)O)CCO3)cc1 (stereo not shown) [Example 179, 6-chloro-7-(4-(1-(4-chlorobenzyl)-1H-pyrazol-3-ylcarbamoyl)phenoxy)chroman-4-carboxylic acid]	247	–	–
